In patent US20140171520A1, “HIGHLY SOLUBLE STEVIA SWEETENER” (priority 2011, published 2014):
Read-outs that look alike come from different tables or passages of the source.

Columns and labels:
[1] = Solubility in reverse osmosis (RO) water at room temperature; assay type: physicochemical; details: g per 100 g solvent
Description: Hereinafter, unless specified otherwise the solubility of material is determined in reverse osmosis (RO) water at room temperature. Where the solubility is expressed as “%” it to be understood as number of grams of material soluble in 100 grams of solvent.

[2] = at 50° C.; U.S. patent application Ser. No. 12/612,374; cited from earlier work
[3] = cited from earlier work

Compound: Rebaudioside B [Reb B]
- water solubility [1]: 0.01%

Compound: C=C1C[C@@]23CC[C@H]4[C@@](C)(CCC[C@@]4(C)C(=O)O[C@@H]4O[C@H](CO)[C@@H](O)[C@H](O)[C@H]4O[C@@H]4O[C@H](CO)[C@@H](O)[C@H](O)[C@H]4O)[C@@H]2CC[C@]1(O[C@@H]1O[C@H](CO)[C@@H](O)[C@H](O[C@@H]2O[C@H](CO)[C@@H](O)[C@H](O)[C@H]2O)[C@H]1O[C@@H]1O[C@H](CO)[C@@H](O)[C@H](O)[C@H]1O)C3 [anhydrous form of Reb D, Rebaudioside D, reference compound]
- solubility [2]: about 0.15%

Compound: C=C1C[C@@]23CC[C@H]4[C@@](C)(CCC[C@@]4(C)C(=O)O[C@@H]4O[C@H](CO)[C@@H](O)[C@H](O)[C@H]4O)[C@@H]2CC[C@]1(O[C@@H]1O[C@H](CO)[C@@H](O)[C@H](O[C@@H]2O[C@H](CO)[C@@H](O)[C@H](O)[C@H]2O)[C@H]1O[C@@H]1O[C@H](CO)[C@@H](O)[C@H](O)[C@H]1O)C3 [Form 2, Rebaudioside A]
- Rate of dissolution in H2O at 25° C. ([3]; in 5 minutes): (<30% in 5

Compound: C=C1C[C@@]23CC[C@H]4[C@@](C)(CCC[C@@]4(C)C(=O)O[C@@H]4O[C@H](CO)[C@@H](O)[C@H](O)[C@H]4O)[C@@H]2CC[C@]1(O[C@@H]1O[C@H](CO)[C@@H](O)[C@H](O[C@@H]2O[C@H](CO)[C@@H](O)[C@H](O)[C@H]2O)[C@H]1O[C@@H]1O[C@H](CO)[C@@H](O)[C@H](O)[C@H]1O)C3 [Form 4, Rebaudioside A]
- Rate of dissolution in H2O at 25° C. ([3]; in 5 minutes): High (>35%

Compound: C=C1C[C@@]23CC[C@H]4[C@@](C)(CCC[C@@]4(C)C(=O)O[C@@H]4O[C@H](CO)[C@@H](O)[C@H](O)[C@H]4O)[C@@H]2CC[C@]1(O[C@@H]1O[C@H](CO)[C@@H](O)[C@H](O[C@@H]2O[C@H](CO)[C@@H](O)[C@H](O)[C@H]2O)[C@H]1O[C@@H]1O[C@H](CO)[C@@H](O)[C@H](O)[C@H]1O)C3 [Form 1, Rebaudioside A]
- solubility among Reb A polymorph forms ([3]; Prakash et al. 2008): lowest solubility
- Rate of dissolution in H2O at 25° C. ([3]; in 60 minutes): (<0.2% in

Compound: C=C1C[C@@]23CC[C@H]4[C@@](C)(CCC[C@@]4(C)C(=O)O[C@@H]4O[C@H](CO)[C@@H](O)[C@H](O)[C@H]4O)[C@@H]2CC[C@]1(O[C@@H]1O[C@H](CO)[C@@H](O)[C@H](O[C@@H]2O[C@H](CO)[C@@H](O)[C@H](O)[C@H]2O)[C@H]1O[C@@H]1O[C@H](CO)[C@@H](O)[C@H](O)[C@H]1O)C3 [Form 3, Rebaudioside A]
- Rate of dissolution in H2O at 25° C. ([3]; in 5 minutes): High (>30%

Compound: C=C1C[C@@]23CC[C@H]4[C@@](C)(CCC[C@@]4(C)C(=O)O[C@@H]4O[C@H](CO)[C@@H](O)[C@H](O)[C@H]4O)[C@@H]2CC[C@]1(O[C@@H]1O[C@H](CO)[C@@H](O)[C@H](O[C@@H]2O[C@H](CO)[C@@H](O)[C@H](O)[C@H]2O)[C@H]1O[C@@H]1O[C@H](CO)[C@@H](O)[C@H](O)[C@H]1O)C3 [Reb A, Rebaudioside A]
- water solubility [1]: > 5%
- water solubility ([1]; listed as rebaudioside A): 5.5%
